Source: US10934302B1, “SHP2 phosphatase inhibitors and methods of use thereof” (Relay Therapeutics, Inc., priority 2018, dated 2021)
Where two headings read alike, the source gives them in different places.

Molecular target: SHP2 (Homo sapiens (Human), UniProt Q06124)
Assay: SHP2 allosteric inhibition assay (DiFMUP prompt fluorescence)
Assay type: biochemical
[1] = 0.25 nM SHP2 activated with 0.5 μM peptide IRS1_pY1172(dPEG8)pY1222, substrate DiFMUP

| IC50 [1] [µM] | Structure (SMILES) | IC50 [µM] |
| --- | --- | --- |
| > 10 | N[C@@H]1c2ccccc2CC12CCN(c1cnc(N3CCC[C@H]3c3ccccc3)cn1)CC2 (racemic) [Example 165, (3S)-1′-{5-[(2S)-2-phenylpyrrolidin-1-yl]pyrazin-2-yl}-1,3-dihydrospiro[indene-2,4′-piperidin]-3-amine] |  |
| ≤ 0.05 | Cc1nc2c(cnn2-c2cccc3c(=O)n(C)ccc23)nc1N1CCC2(CC1)Oc1ccccc1[C@H]2N [Example 203] |  |
| 1 to 10 | Cc1nc2c(N3CCCc4c3ccn(C)c4=O)n[nH]c2nc1N1CCC2(CC1)Cc1cc(F)ccc1[C@H]2N [Example 245] |  |
| ≤ 0.05 | Nc1nccc(Sc2ccc(N3CCC4(CC3)Cc3cc(F)ccc3[C@H]4N)cn2)c1Cl [Example 217] |  |
| ≤ 0.05 | N[C@@H]1c2ccccc2CC12CCN(c1cnc3ccccc3n1)CC2 [Example 179] |  |
| ≤ 0.05 | Cn1c(N2CCC3(CC2)Cc2ccccc2[C@H]3N)nc2[nH]nc(N3CCCCC3)c2c1=O (racemic) [Example 200] |  |
| ≤ 0.05 | N[C@@H]1c2ccccc2CC12CCN(c1cnc3c(-c4cccc5ncccc45)n[nH]c3n1)CC2 [Example 68] |  |
| ≤ 0.05 | N[C@@H]1c2ccccc2CC12CCN(C1=Nc3ncc(C4CC4)cc3C1)CC2 [Example 229] |  |
| 1 to 10 | N[C@H]1c2cccc(F)c2CC12CCN(c1cnc3c(N4CCCc5ncccc54)n[nH]c3n1)CC2 [Example 16] |  |
| ≤ 0.05 | Cn1c(N2CCC3(CC2)Cc2ccccc2[C@H]3N)ncc(SCC2CC2)c1=O [Example 238] |  |
| ≤ 0.05 | CC(=O)N1CCN(c2n[nH]c3nc(N4CCC5(CC4)Cc4ccccc4[C@@H]5N)cnc23)c2ccccc21 [Example 1, 1-(4-{6-[(3R)-3-amino-1,3-dihydrospiro[indene-2,4′-piperidin]-1′-yl]-1H-pyrazolo[3,4-b]pyrazin-3-yl}-1,2,3,4-tetrahydroquinoxalin-1-yl)ethan-1-one] |  |
| ≤ 0.05 | N[C@@H]1c2ccccc2C[C@]12CC[C@H](c1ccc(Sc3ccnc(Cl)c3Cl)nc1)CC2 [Example 279, (1s,3'S,4R)-4-{6-[(2,3-dichloropyridin-4-yl)sulfanyl]pyridin-3-yl}-1′,3′-dihydrospiro[cyclohexane-1,2′-inden]-3′-amine] |  |
| ≤ 0.05 | CO[C@H]1C[C@@H](N2CCN(c3n[nH]c4nc(N5CCC6(CC5)Cc5ccccc5C6N)cnc34)c3ccc(C#N)cc32)C1 (stereo partly drawn) [Example 32] |  |
| ≤ 0.05 | N[C@@H]1c2ccccc2CC12CCN(c1nc3[nH]nc(Sc4ccnc(Cl)c4Cl)c3nc1CO)CC2 [Example 88] |  |
| ≤ 0.05 | N[C@H]1c2ccccc2CC12CCN(c1cnc3c(-c4ccnc(Cl)c4Cl)n[nH]c3n1)CC2 [Example 71] |  |
| ≤ 0.05 | N[C@@H]1c2ccccc2CC12CCN(c1nc3[nH]nc(N4CCCc5ncccc54)c3nc1C(F)F)CC2 [Example 140, (S)-1′-(5-(difluoromethyl)-3-(3,4-dihydro-1,5-naphthyridin-1(2H)-yl)-1H-pyrazolo[3,4-b]pyrazin-6-yl)-1,3-dihydrospiro[indene-2,4′-piperidin]-1-amine] |  |
| ≤ 0.05 | N[C@@H]1c2ccccc2CC12CCN(c1nc3[nH]nc(N4CCCCC4)c3nc1CO)CC2 [Example 103] |  |
| 1 to 10 | Cc1c(N2CCCc3ccccc32)nc2sc(N3CCC4(CC3)Cc3ccccc3[C@H]4N)nn12 [Example 207] |  |
| 1 to 10 | Cc1nc2c(N3CCCCC3)n[nH]c2nc1N1CCC2(CC1)Oc1ccc(F)cc1[C@H]2N [Example 208] |  |
| 1 to 10 | N[C@@H]1c2cccc(F)c2CC12CCN(c1cnc3cn[nH]c3n1)CC2 [Example 23] |  |
| 1 to 10 | N[C@@H]1c2ccccc2CC12CCN(c1ccc3c(N4CCCCC4)n[nH]c3n1)CC2 [Example 209] |  |
| ≤ 0.05 | N#Cc1ccc2c(c1)N([C@H]1C[C@H](O)C1)CCN2c1n[nH]c2nc(N3CCC4(CC3)Cc3ccccc3C4N)cnc12 (stereo partly drawn) [Example 35] |  |

| IC50 [1] [µM] | Structure (SMILES) | IC50 [µM] |
| --- | --- | --- |
| ≤ 0.05 | CNC(=O)c1n[nH]c2nc(N3CCC4(CC3)Cc3ccccc3[C@H]4N)c(CO)nc12 [Example 155, 6-[(3S)-3-amino-1,3-dihydrospiro[indene-2,4′-piperidin]-1′-yl]-5-(hydroxymethyl)-N-methyl-1H-pyrazolo[3,4-b]pyrazine-3-carboxamide] |  |
| ≤ 0.05 | N[C@@H]1c2cc(F)cc(F)c2CC12CCN(c1cnc3c(N4CCCc5ncccc54)n[nH]c3n1)CC2 [Example 109] |  |
| 0.05 to 1 | Cn1c(N2CCC3(CC2)Cc2ccccc2[C@H]3N)ncc(N2CCCc3ccccc32)c1=O [Example 205] |  |
| ≤ 0.05 | N#CCc1n[nH]c2nc(N3CCC4(CC3)Cc3ccccc3[C@H]4N)c(CO)nc12 [Example 153, 2-{6-[(3S)-3-amino-1,3-dihydrospiro[indene-2,4′-piperidin]-1′-yl]-5-(hydroxymethyl)-1H-pyrazolo[3,4-b]pyrazin-3-yl}acetonitrile] |  |
| ≤ 0.05 | N[C@@H]1c2ccccc2CC12CCN(c1cnc3c(-c4ccncc4F)n[nH]c3n1)CC2 [Example 74] |  |
| ≤ 0.05 | N[C@H]1c2ccccc2C[C@]12CC[C@H](c1cnc(Sc3ccnc(Cl)c3Cl)cn1)CC2 (single isomer, unassigned) [Example 276, (1s, 3′R, 4S)-4-{5-[(2,3-dichloropyridin-4-yl)sulfanyl]pyrazin-2-yl}-1′,3′-dihydrospiro[cyclohexane-1,2′-inden]-3′-amine] |  |
| ≤ 0.05 | N[C@@H]1c2ccccc2CC12CCN(c1ncc(SCC3CC3)c(=O)[nH]1)CC2 [Example 237] |  |
| ≤ 0.05 | CO[C@H]1C[C@H](N2CCN(c3n[nH]c4nc(N5CCC6(CC5)Cc5ccccc5C6N)cnc34)c3ccc(C#N)cc32)C1 (stereo partly drawn) [Example 33] |  |
| ≤ 0.05 | CC(=O)N1CCN(c2n[nH]c3nc(N4CCC5(CC4)Cc4ccccc4[C@H]5N)cnc23)c2ccccc21 [Example 2, 1-(4-{6-[(3S)-3-amino-1,3-dihydrospiro[indene-2,4′-piperidin]-1′-yl]-1H-pyrazolo[3,4-b]pyrazin-3-yl}-1,2,3,4-tetrahydroquinoxalin-1-yl)ethan-1-one] |  |
|  | Cc1ccc(C(=O)CSc2cnc(N3CCC4(CC3)Cc3ccccc3[C@H]4N)cn2)cc1 [Example 267, (S)-2-((5-(1-amino-1,3-dihydrospiro[indene-2,4′-piperidin]-1′-yl)pyrazin-2-yl)thio)-1-(p-tolyl)ethan-1-one] | < 0.05 |
| ≤ 0.05 | N[C@@H]1c2ccccc2OC12CCN(c1cnc(Oc3ccnc(Cl)c3Cl)cn1)CC2 [Example 64] |  |
| ≤ 0.05 | N[C@@H]1c2cccc(F)c2OC12CCN(c1cnc3c(N4CCCc5ncccc54)n[nH]c3n1)CC2 [Example 54] |  |
| ≤ 0.05 | C[C@H](O)c1nc2c(N3CCCc4ncccc43)n[nH]c2nc1N1CCC2(CC1)Cc1ccccc1[C@H]2N (single isomer, unassigned) [Example 142] |  |
| ≤ 0.05 | N[C@@H]1c2ccccc2CC12CCN(c1ncnc3c(-c4cccc(Cl)c4Cl)csc13)CC2 [Example 76] |  |
| 0.05 to 1 | Nc1nccc(Sc2ccc(N3CCC4(CC3)Oc3ccccc3[C@H]4N)cn2)c1Cl [Example 216] |  |
| ≤ 0.05 | N[C@@H]1c2ccccc2CC12CCN(c1cnc(SCC3CCCC3)cn1)CC2 [Example 264, (S)-1′-(5-((cyclopentylmethyl)thio)pyrazin-2-yl)-1,3-dihydrospiro[indene-2,4′-piperidin]-1-amine] |  |
| ≤ 0.05 | N[C@H]1c2ccccc2C[C@]12CC=C(c1cnc3c(N4CCCc5ncccc54)n[nH]c3n1)CC2 [Example 174, (1R,1′R)-4-(3-(3,4-dihydro-1,5-naphthyridin-1(2H)-yl)-1H-pyrazolo[3,4-b]pyrazin-6-yl)-1′,3′-dihydrospiro[cyclohex[3]ene-1,2′-inden]-1′-amine] |  |
| ≤ 0.05 | N[C@@H]1c2ccccc2CC12CN(c1cnc3c(N4CCCc5ncccc54)n[nH]c3n1)C2 [Example 115] |  |
| ≤ 0.05 | N[C@@H]1c2ccccc2CC12CCN(c1cnc3c(-c4cc5cc[nH]c5cc4F)n[nH]c3n1)CC2 [Example 72] |  |
| ≤ 0.05 | CS(=O)(=O)c1cccc2c1CCCN2c1n[nH]c2nc(N3CCC4(CC3)Cc3ccc(F)cc3[C@H]4N)cnc12 [Example 41] |  |
| ≤ 0.05 | Cc1cc(N2CCC3(CC2)Cc2ccccc2[C@H]3N)cc(S(C)(=O)=O)c1 [Example 271, (S)-1′-(3-methyl-5-(methylsulfonyl)phenyl)-1,3-dihydrospiro[indene-2,4′-piperidin]-1-amine] |  |
| ≤ 0.05 | N[C@H]1c2ccccc2CC12CCN(c1cnc3c(Sc4ccnc(Cl)c4Cl)n[nH]c3n1)CC2 [Example 92] |  |

| Structure (SMILES) | IC50 [1] [µM] | IC50 [µM] |
| --- | --- | --- |
| Nc1cc(Sc2cnc(N3CCC4(CC3)Cc3ccccc3[C@H]4N)cn2)c(Cl)c(Cl)n1 [Example 129, (S)-1′-(5-((6-amino-2,3-dichloropyridin-4-yl)thio)pyrazin-2-yl)-1,3-dihydrospiro[indene-2,4′-piperidin]-1-amine] | ≤ 0.05 |  |
| Nc1nccc(Sc2cnc(C34C[C@@H]5C[C@@]6(Cc7ccccc7[C@H]6N)C[C@H](C3)N54)cn2)c1Cl (stereo partly drawn) [Example 231] | > 10 |  |
| N[C@@H]1c2ccccc2CC12CCN(c1ncnc3c1cnn3-c1ccccc1)CC2 [Example 195, (3S)-1′-{1-phenyl-1Hpyrazolo[3,4-d]pyrimidin-4-yl}-1,3-dihydrospiro[indene-2,4′-piperidin]-3-amine] | ≤ 0.05 |  |
| N[C@@H]1c2ccccc2CC12CCN(c1cnc(SCCc3ccccc3)cn1)CC2 [Example 265, (S)-1′-(5-(phenethylthio)pyrazin-2-yl)-1,3-dihydrospiro[indene-2,4′-piperidin]-1-amine] | ≤ 0.05 |  |
| N[C@@H]1c2ccccc2O[C@]12C[C@H]1CC[C@@H](C2)N1c1cnc(SCC2CC2)cn1 [Example 274, (1′R,2r,3R,5'S)-8′-(5-((cyclopropylmethyl)thio)pyrazin-2-yl)-3H-8′-azaspiro[benzofuran-2,3′-bicyclo[3.2.1]octan]-3-amine] | 1 to 10 |  |
| N[C@@H]1c2ccccc2OC12CCN(c1cnc(SCC3CC3)cn1)CC2 [Example 273, (R)-1′-(5-((cyclopropylmethyl)thio)pyrazin-2-yl)-3H-spiro[benzofuran-2,4′-piperidin]-3-amine] | ≤ 0.05 |  |
| N[C@@H]1c2cccc(F)c2OC12CCN(c1cnc(Sc3ccnc(Cl)c3Cl)cn1)CC2 [Example 82, (3R)-1′-{5-[(2,3-dichloropyridin-4-yl)sulfanyl]pyrazin-2-yl}-7-fluoro-3H-spiro[1-benzofuran-2,4′-piperidin]-3-amine] | ≤ 0.05 |  |
